In brackets after ≈: the same amount, converted by molar mass.
Assays:
[1] = test system: Escherichia coli; experiment: Antibacterial activity against Escherichia coli KB336 JCM5491 by agar dilution method; type: functional
[2] = test system: Klebsiella pneumoniae; experiment: Antibacterial activity against Klebsiella pneumoniae KB214 ATCC 10031 by agar dilution method; type: functional
[3] = test system: Staphylococcus epidermidis; experiment: Antibacterial activity against Staphylococcus epidermidis KB352 NBRC12993 by agar dilution method; type: functional
[4] = test system: Salmonella typhimurium; experiment: Antibacterial activity against Salmonella typhimurium KB20 by agar dilution method; type: functional, Salmonella enterica subsp. enterica serovar Typhimurium; details: Salmonella enterica
[5] = test system: Pseudomonas aeruginosa; experiment: Antibacterial activity against Pseudomonas aeruginosa KB115 NBRC3080 by agar dilution method; type: functional
[6] = test system: Bacillus subtilis; experiment: Antibacterial activity against Bacillus subtilis KB355 NBRC3134 by agar dilution method; type: functional
[7] = test system: Kocuria rhizophila; experiment: Antibacterial activity against Kocuria rhizophila KB212 ATCC 9341 by agar dilution method; type: functional
[8] = test system: Pseudomonas aeruginosa; experiment: Antibacterial activity against Pseudomonas aeruginosa KB359 NBRC12582 by agar dilution method; type: functional
[9] = test system: Mucor racemosus; experiment: Antifungal activity against Mucor racemosus KF223 NBRC4581 by agar dilution method; type: functional
[10] = test system: Klebsiella pneumoniae; experiment: Antibacterial activity against Klebsiella pneumoniae KB357 NBRC357 by agar dilution method; type: functional
[11] = test system: Micrococcus luteus; experiment: Antibacterial activity against Micrococcus luteus KB453 NBRC13867 by agar dilution method; type: functional
[12] = test system: Candida albicans; experiment: Antifungal activity against Candida albicans KF1 by agar dilution method; type: functional
[13] = test system: Proteus vulgaris; experiment: Antibacterial activity against Proteus vulgaris KB127 IF03167 by agar dilution method; type: functional
[14] = test system: Staphylococcus aureus; experiment: Antibacterial activity against Staphylococcus aureus KB349 MRSA K24 by agar dilution method; type: functional
[15] = test system: Comamonas terrigena; experiment: Antibacterial activity against Comamonas terrigena KB358 NBRC13299 by agar dilution method; type: functional
[16] = test system: Aspergillus niger; experiment: Antifungal activity against Aspergillus niger KF104 ATCC 9643 by agar dilution method; type: functional
[17] = test system: Escherichia coli; experiment: Antibacterial activity against Escherichia coli KB213 NIHJ by agar dilution method; type: functional
[18] = test system: Staphylococcus aureus; experiment: Antibacterial activity against Staphylococcus aureus KB335 JCM2151 by agar dilution method; type: functional
[19] = test system: Aspergillus oryzae; experiment: Antifungal activity against Aspergillus oryzae KF439 by agar dilution method; type: functional
[20] = test system: Bacillus cereus; experiment: Antibacterial activity against Bacillus cereus KB143 NBRC3001 by agar dilution method; type: functional
[21] = test system: Staphylococcus aureus; experiment: Antibacterial activity against Staphylococcus aureus KB210 ATCC 6538p by agar dilution method; type: functional
[22] = test system: Bacillus subtilis; experiment: Antibacterial activity against Bacillus subtilis KB211 ATCC 6633 by agar dilution method; type: functional
[23] = test system: Escherichia coli; experiment: Antibacterial activity against Escherichia coli KB176 NIHJ JC-2 by agar dilution method; type: functional
[24] = test system: Bacillus subtilis; experiment: Antibacterial activity against Bacillus subtilis KB340 JCM1465 by agar dilution method; type: functional
[25] = test system: Serratia marcescens; experiment: Antibacterial activity against Serratia marcescens KB215 IAM1021 by agar dilution method; type: functional
[26] = test system: Proteus mirabilis; experiment: Antibacterial activity against Proteus mirabilis KB125 NBRC3849 by agar dilution method; type: functional
[27] = test system: Mycolicibacterium smegmatis; experiment: Antibacterial activity against Mycobacterium smegmatis KB42 ATCC 607 by agar dilution method; type: functional
[28] = test system: Saccharomyces cerevisiae; experiment: Antifungal activity against Saccharomyces cerevisiae KF26 by agar dilution method; type: functional
[29] = test system: Kocuria rhizophila; experiment: Antibacterial activity against Kocuria rhizophila KB354 NBRC12708 by agar dilution method; type: functional

Question: Which MIC [1] does the source give for `CCCCCC1OC(=O)Cc2cc(OC)c(O)c(O)c21` (racemic) here?
Answer: > 100 µg/mL

Question: What about the MIC [2] of the same compound?
Answer: > 100 µg/mL

Question: What about the MIC [3] of the same compound?
Answer: 50 µg/mL (≈ 178 µM)

Question: What about the MIC [4] of the same compound?
Answer: > 100 µg/mL

Question: What about the MIC [5] of the same compound?
Answer: 100 µg/mL (≈ 357 µM)

Question: And the MIC [6]?
Answer: 50 µg/mL (≈ 178 µM)

Question: What about the MIC [7] of the same compound?
Answer: 50 µg/mL (≈ 178 µM)

Question: What about the MIC [8] of the same compound?
Answer: 100 µg/mL (≈ 357 µM)

Question: What about the MIC [9] of the same compound?
Answer: 100 µg/mL (≈ 357 µM)

Question: And the MIC [10]?
Answer: > 100 µg/mL

Question: What about the MIC [11] of the same compound?
Answer: 50 µg/mL (≈ 178 µM)

Question: What about the MIC [12] of the same compound?
Answer: 25 µg/mL (≈ 89.2 µM)

Question: And the MIC [13]?
Answer: 50 µg/mL (≈ 178 µM)

Question: What about the MIC [14] of the same compound?
Answer: 50 µg/mL (≈ 178 µM)

Question: And the MIC [15]?
Answer: 50 µg/mL (≈ 178 µM)

Question: And the MIC [16]?
Answer: 50 µg/mL (≈ 178 µM)

Question: What about the MIC [17] of the same compound?
Answer: 100 µg/mL (≈ 357 µM)

Question: What about the MIC [18] of the same compound?
Answer: 50 µg/mL (≈ 178 µM)

Question: And the MIC [19]?
Answer: 50 µg/mL (≈ 178 µM)

Question: What about the MIC [20] of the same compound?
Answer: 50 µg/mL (≈ 178 µM)

Question: And the MIC [21]?
Answer: 50 µg/mL (≈ 178 µM)

Question: And the MIC [22]?
Answer: 100 µg/mL (≈ 357 µM)

Question: What about the MIC [23] of the same compound?
Answer: > 100 µg/mL

Question: What about the MIC [24] of the same compound?
Answer: 50 µg/mL (≈ 178 µM)

Question: And the MIC [25]?
Answer: > 100 µg/mL

Question: What about the MIC [26] of the same compound?
Answer: 100 µg/mL (≈ 357 µM)

Question: And the MIC [27]?
Answer: 50 µg/mL (≈ 178 µM)

Question: And the MIC [28]?
Answer: 12.5 µg/mL (≈ 44.6 µM)

Question: And the MIC [29]?
Answer: 50 µg/mL (≈ 178 µM)

From ChEMBL document CHEMBL2311252, “Cytosporone S with antimicrobial activity, isolated from the fungus Trichoderma sp. FKI-6626” (2013)
